Assay results published in US20140038889A1, “Modulators Of The GPR119 Receptor And The Treatment Of Disorders Related Thereto” (ARENA PHARMACEUTICALS, INC., priority 2011, published 2014).
Values after ≈ are worked out from the molar mass of the structure shown. “Also recorded” adds a separate entry of the source. Structures can show the parent of a compound that is named as a salt.

Experiments:
Solubility of Compound 1 = assay type: physicochemical
Experimental: To a solution of 5-fluoro-4-(2-methyl-6-(methylsulfonyl)pyridin-3-yloxy)-6-(piperidin-4-yloxy)pyrimidine hydrochloride (200 mg, 0.477 mmol) and 2,5-dioxopyrrolidin-1-yl 1-methylcyclopropyl carbonate (247 mg, 1.16 mmol) in DCM (3.5 mL) was added triethylamine (0.333 mL, 2.387 mmol). The reaction mixture was stirred at room temperature for 2 h. The mixture was concentrated under reduced pressure and the residue was purified by silica gel flash column chromatography to give the title compound as a white solid (183 mg, 80% yield). Exact mass calculated for C21H25FN4O6S: 480.15. found: LCMS m/z=481.2 [M+H]^+; ^1H NMR (400 MHz, CDCl3) δ ppm 0.63-0.66 (m, 2H), 0.87-0.90 (m, 2H), 1.56 (s, 3H), 1.82-1.84 (m, 2H), 2.02-2.04 (m, 2H), 2.55 (s, 3H), 3.35 (s, 3H), 3.28-3.37 (m, 2H), 3.78-3.79 (m, 2H), 5.36-5.40 (m, 1H), 7.68 (d, J=12 Hz, 1H), 8.01 (d, J=8 Hz, 1H), 8.07 (s, 1H). Solubility: <0.001 mg/mL (H2O); 2.758 mg/mL (20% HPCD).

Male 129SVE mice [1] = assay: Oral glucose tolerance test (oGTT) in male 129SVE mice; assay type: in vivo; details: for Plasma Glucose, Mean: n=6
Experimental: Male 129SVE mice (approximately 8 weeks old) were fasted for 18 h and randomly grouped (n=6) to receive a GPR119 agonist (Compound 1) at 3, or 10 mg/kg body weight. Compound 1 was delivered orally via a gavage needle (p.o., volume at 4 mL/kg) 30 minutes prior to glucose bolus (3 g/kg) (time=−30 min in FIG. 1), with a separate group receiving vehicle (20% hydroxypropyl-beta-cyclodextrin (HPCD) as a control. At time 0 min the glucose bolus was administered. Levels of blood glucose were assessed using a glucometer (One-Touch Ultra™, LifeScan) at time −30 min (prior to compound administration), at 0 min (when the glucose bolus was given), and at 20, 40, 60, 120 min post glucose bolus. The plasma glucose level (Table A) and glucose excursion curve (FIG. 1) are shown. Glucose excursion reduction (area under the curve (AUC)) in compound-treated animals relative to vehicle control is shown in FIG. 2.

Male 129SVE mice [2] = assay: GIP release in male 129SVE mice (plasma total GIP, ELISA); assay type: in vivo; details: 3 or 30 mg/kg p.o., 45 min
Experimental: Male 129SVE mice (approximately 8 weeks old) were fasted for 18 h and randomly grouped (n=6) to receive a GPR119 agonist (Compound 1) at 3 or 30 mg/kg body weight. Compound 1 was delivered orally via a gavage needle (4 mL/kg), and after 45 min, a blood sample was collected to determine plasma total GIP levels. A separate control group received vehicle (PET (80% PEG:10% Ethanol:10% Tween80™)). Plasma GIP levels were determined using a GIP (total) ELISA kit from Millipore.

GPR119 receptor = biological target: T1, GPR119 receptor (Homo sapiens, UniProt Q8TDV5); assay: HTRF cAMP detection assay in CHO-K1 cells stably expressing the GPR119 receptor; assay type: cell-based
T1 construct: expressed in transfected cells
T1 sequence (Q8TDV5 2-335): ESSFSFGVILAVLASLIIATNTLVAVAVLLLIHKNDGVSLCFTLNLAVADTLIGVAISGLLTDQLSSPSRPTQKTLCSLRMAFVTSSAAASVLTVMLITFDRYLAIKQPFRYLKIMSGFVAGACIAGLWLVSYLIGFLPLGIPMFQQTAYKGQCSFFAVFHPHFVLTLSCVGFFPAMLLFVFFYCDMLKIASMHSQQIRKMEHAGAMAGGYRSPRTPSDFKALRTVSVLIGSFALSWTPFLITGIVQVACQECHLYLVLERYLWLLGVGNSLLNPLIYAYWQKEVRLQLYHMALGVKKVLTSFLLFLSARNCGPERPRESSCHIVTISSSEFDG
Experimental: GPR119 agonist, Compound 1, was evaluated in an HTRF® cAMP detection assay (Cisbio, cAMP Dynamic 2 Assay Kit; #62AM4PEJ) according to the manufacturer's instructions using CHO-K1 cells stably expressing the GPR119 receptor. CHO-K1 cells were transduced with a lentiviral vector encoding the nucleotide sequence of GPR119 (NCBI mRNA and protein reference sequences: NM_178471.2 & NP_848566). The N-terminus of the GPR119 nucleotide sequence was modified to replace the first, methionine-coding, codon with a nucleotide sequence coding for a standard, nine amino acid, hemagglutinin tag. Following transduction, cells expressing the GPR119 receptor were isolated and a single clone was isolated following standard dilution-cloning procedures. On the day of the assay, cultured CHO-GPR119 cells were harvested, suspended in assay buffer and plated into 384-well assay plates (PerkinElmer® Proxiplate® #6008280) at a density of 2,000 cells per well. A cAMP standard curve was added to each plate. Compound 1 was dissolved in DMSO, serially diluted in DMSO and then diluted in assay buffer before addition to the cells. Compound 1 was evaluated in triplicate, using 10-point, 5-fold serial dilutions starting at 10 μM. […] Plates were then incubated at room temperature for 1 h prior to reading. Time-resolved fluorescence measurements were collected on PerkinElmer Envision™ or BMG Pherastar™ microplate readers. […]

Male ZDF rats = assay: Oral glucose tolerance test (oGTT) in male ZDF rats; assay type: in vivo; details: for % Inhibition of Glucose Excursion: AUC relative to vehicle control, ZDF rats
Experimental: Male ZDF rats were fasted for 18 h and randomly grouped (n=6) to receive the GPR119 agonist Compound 1(3 or 10 mg/kg), the control compound, Januvia (3 mg/kg), or a combination of Compound 1(3 mg/kg) and Januvia (3 mg/kg). The compounds were delivered orally via a gavage needle (p.o., volume 4 mL/kg) 60 min prior to glucose bolus (3 g/kg) (time=−60 min in FIG. 4), with a separate group receiving vehicle (20% hydroxypropyl-beta-cyclodextrin (HPCD)) as control. At time 0 min, a glucose bolus was administered. Levels of blood glucose were assessed using a glucometer (One-Touch Ultra™, LifeScan) at time −60 min (prior to compound administration), at 0 min (at time when glucose bolus was given), and at 30, 60, 90, and 120 min post glucose bolus. The plasma glucose excursion curve (FIG. 4) is shown.

Male SD rats = assay: Gastric emptying in male SD rats (stomach content 6 h post-dosing); assay type: in vivo; details: SD rats, 3, 10 or 30 mg/kg orally
Experimental: Male SD rats were fasted for 18 h and randomly grouped (n=5). Fasted rats were allowed to access food for 30 min, and the amount of food consumed was recorded for each rat. At the end of the 30 min food intake, rats were put in cages without food and water, and dosed with Compound 1 at 3, 10, or 30 mg/kg, or vehicle control (20% HPCD) orally, or with exendin-4 (Ex-4) at 100 μg/kg i.p. Six hours post-dosing, rats were euthanized with CO2, and stomach content was determined.

humans = details: human studies, infusion, over 24 hours; cited from earlier work
[3] = 3 mg/kg p.o. 60 min prior to glucose bolus (3 g/kg)

Compound: Cc1nc(S(C)(=O)=O)ccc1Oc1ncnc(OC2CCN(C(=O)OC3(C)CC3)CC2)c1F [Compound 1, 1-methylcyclopropyl 4-(5-fluoro-6-(2-methyl-6-(methylsulfonyl)pyridin-3-yloxy)pyrimidin-4-yloxy)piperidine-1-carboxylate]
- solubility (Solubility of Compound 1; 20% HPCD, aqueous with cosolvent or surfactant or cyclodextrin): 2760 µg/mL (≈ 5.74 mM)
- solubility (Solubility of Compound 1; water, H2O): < 1 µg/mL
- Plasma Glucose, Mean (Male 129SVE mice [1]; 3 mg/kg p.o., 0 min relative to glucose bolus): 92.0 mg/dL
- Plasma Glucose, Mean (Male 129SVE mice [1]; 3 mg/kg p.o., 20 min post glucose bolus (3 g/kg)): 207.0 mg/dL
- Plasma Glucose, Mean (Male 129SVE mice [1]; 3 mg/kg p.o., 40 min post glucose bolus (3 g/kg)): 280.6667 mg/dL
- Plasma Glucose, Mean (Male 129SVE mice [1]; 3 mg/kg p.o., 60 min post glucose bolus (3 g/kg)): 248.8333 mg/dL
- Plasma Glucose, Mean (Male 129SVE mice [1]; 3 mg/kg p.o., 120 min post glucose bolus (3 g/kg)): 161.8333 mg/dL
- Plasma Glucose, Mean (Male 129SVE mice [1]; 3 mg/kg p.o., -30 min relative to glucose bolus (prior to compound administration)): 75.17 mg/dL
- Plasma Glucose, Mean (Male 129SVE mice [1]; 10 mg/kg p.o., 0 min relative to glucose bolus): 94.5 mg/dL
- Plasma Glucose, Mean (Male 129SVE mice [1]; 10 mg/kg p.o., 20 min post glucose bolus (3 g/kg)): 190.3333 mg/dL
- Plasma Glucose, Mean (Male 129SVE mice [1]; 10 mg/kg p.o., 40 min post glucose bolus (3 g/kg)): 229.6667 mg/dL
- Plasma Glucose, Mean (Male 129SVE mice [1]; 10 mg/kg p.o., 60 min post glucose bolus (3 g/kg)): 199.6667 mg/dL
- Plasma Glucose, Mean (Male 129SVE mice [1]; 10 mg/kg p.o., 120 min post glucose bolus (3 g/kg)): 150.6667 mg/dL
- Plasma Glucose, Mean (Male 129SVE mice [1]; 10 mg/kg p.o., -30 min relative to glucose bolus (prior to compound administration)): 71.5 mg/dL
- Effect on blood glucose after challenge with glucose (in words) (Male 129SVE mice [1]; male 129SVE mice, 3 or 10 mg/kg p.o.): lowered blood glucose
- Effect on plasma glucose levels in oGTT (in words) (Male 129SVE mice [1]; male 129SVE mice, dose of 10 mg/kg): significantly reduced plasma glucose levels
- Release of GIP (plasma total GIP, in words) (Male 129SVE mice [2]): stimulates the release of GIP
- Agonist activity at GPR119 (in words) (GPR119 receptor): potent and selective agonist; also recorded: full agonist
- EC50 (GPR119 receptor; CHO-K1 cells stably expressing GPR119, 1 h incubation): 14.9 nM
- % Inhibition of Glucose Excursion (Male ZDF rats; [3]): 14.8%
- % Inhibition of Glucose Excursion (Male ZDF rats; 10 mg/kg p.o. 60 min prior to glucose bolus (3 g/kg)): 26.2%
- Effect on blood glucose after a challenge with glucose (in words) (Male ZDF rats; diabetic ZDF rats, 3 or 10 mg/kg p.o.): lowered blood glucose
- Effect on gastric emptying (in words) (Male SD rats): had an effect on gastric emptying at high dosage (30 mg/kg), but that effect was less pronounced than the positive control, Ex-4

Compound: N[C@@H](CC(=O)N1CCn2c(nnc2C(F)(F)F)C1)Cc1cc(F)c(F)cc1F [Januvia, dihydrogenphosphate salt of 3(R)-amino-1-[3-(trifluoromethyl)-5,6,7,8-tetrahydro[1,2,4]triazolo[4,3-a]pyrazin-7-yl]-4-(2,4,5-trifluorophenyl)butan-1-one, reference compound]
- % Inhibition of Glucose Excursion (Male ZDF rats; [3]): 57.0%

Compound: PYY3-36: form of Peptide YY generated from PYY1-36 by cleavage of the N-terminal Tyr and Pro residues by DPP-IV
- Reduction of food intake (humans): 33%
